Results published in patent publication US11834413B2, “Antiplatelet drugs and uses thereof” (SHANGHAI CUREGENE PHARMACEUTICAL CO., LTD., priority 2020, dated 2023).

Columns and labels:
[1] = Pharmacokinetic in rats: concentration of the thiol active metabolite in plasma; format: in vivo, Male Sprague-Dawley rats; details: for peak concentration of the thiol active metabolite compared with clopidogrel: rat plasma; for release of the active metabolite compared with clopidogrel: rat
Procedure: Assay 1: Pharmacokinetic in Rats
Male Sprague-Dawley rats were used to conduct pharmacokinetic experiment.
Test compounds (clopidogrel and exemplary compounds provided herein) was administrated orally or intravenously to rat under fast condition. Blood samples were collected via jugular vein at 5 min, 15 min, 30 min, 60 min and 120 min time points with EDTA-K2 (anticoagulant), 3′-methoxyphenacyl bromide (MPBr, derivatization reagent) and phenylmethylsulfonyl fluoride (PMSF, stabilizer). Plasma samples were then harvested by centrifuging at 1500 g for 10 min under 2-8° C. and stored at −80° C. after separation. Plasma samples were loaded to a LC-MS/MS instrument after extraction to determine the concentration of the thiol active metabolite.

platelet aggregation = test: Antiaggregatory action in rats: ex vivo ADP-induced platelet aggregation in PRP, turbidimetric aggregometry; design: species or system Male Sprague-Dawley rats; details: rat, oral
Procedure: Assay 2: Antiaggregatory Action in Rats
Male Sprague-Dawley rats were used for ex vivo platelet aggregation experiments. After oral administrated with (clopidogrel, exemplary compounds provided herein and vehicle (control)) to rats, blood was collected via jugular vein at 0.5 hour, 1 hour and 2 hour time points, using 3.8% (w/v) sodium citrate solution as an anticoagulant ( 1/9 volume of whole blood). Blood samples with citrate were centrifuged at a low speed of 1000 rmp for 5 min to obtain platelet-rich plasma (PRP). After separation of PRP, the remained blood was further centrifuged at a high speed of 3000 rmp for 10 min to obtain platelet-poor plasma (PPP). The number of platelets in PRP was measured by hematology analyzer (Siemens, ADVIA2120), and adjusted to 4×10^8/mL with PPP.
Platelet aggregation was determined using turbidimetric aggregometry method by an automatic platelet aggregometer (PRECIL LBY-NJ4). The aggregometer was primarily warmed up to 37° C., and PRP (290 μL) sample was added to the cuvette and set in the automatic platelet aggregometer. After a 5 min pre-incubation, calibrated the aggregometer using PPP to representing 100% aggregation and PRP to representing 0% aggregation. Finally, a volume of […] ADP solution (final concentration 10 μM) was added to PRP sample to initial platelet aggregation. Platelet aggregation was monitored for 5 min and maximum platelet aggregation (%) was reported within the duration. Antiaggregatory action of test compounds was expressed as inhibition (%) which determined by the relation: Inhibition (%)=(maximum platelet aggregation (%) of control−maximum platelet aggregation (%) of test compound)/(maximum platelet aggregation (%) of control)*100

[2] = after absorption; cited from earlier work
[3] = after a loading dose (600 mg); cited from earlier work

CCOC(=O)/C=C1\CN([C@H](C(=O)OC)c2ccccc2Cl)CCC1SCOC(=O)OC(C)C (stereo partly drawn) [compound 2a]
peak concentration of the thiol active metabolite compared with clopidogrel ([1]; oral, dose level 10 mg/kg): significantly higher than that for clopidogrel | release of the active metabolite compared with clopidogrel ([1]; oral, dose level 10 mg/kg): faster and more efficient release of the active metabolite than clopidogrel

COC(=O)OCSC1CCN([C@H](C(=O)OC)c2ccccc2Cl)C/C1=C/C(=O)O (stereo partly drawn) [compound 3]
release of the active metabolite compared with clopidogrel ([1]; oral 2 mg/kg and intravenous 1 mg/kg vs clopidogrel oral 10 mg/kg): faster and more efficient release of the active metabolite than clopidogrel

COC(=O)[C@H](c1ccccc1Cl)N1CCC(SCOC(=O)OC(C)C)/C(=C\C(=O)O)C1 (stereo partly drawn) [compound 1b]
peak concentration of the thiol active metabolite compared with clopidogrel ([1]; oral, dose level 10 mg/kg): significantly higher than that for clopidogrel | release of the active metabolite compared with clopidogrel ([1]; oral, dose level 10 mg/kg): faster and more efficient release of the active metabolite than clopidogrel | inhibition at 2 mg/kg (platelet aggregation; Platelet, 2 mg/kg, ADP 10 μM, read-out: maximum inhibition of platelet aggregation): ~45% | time after administration to maximum inhibition of platelet aggregation (platelet aggregation; 2 mg/kg): 60 min | onset of action and potency compared with clopidogrel (platelet aggregation; 2 mg/kg vs clopidogrel 10 mg/kg): much faster onset of action and much higher potency than clopidogrel

COC(=O)[C@H](c1ccccc1Cl)N1CCC(SCOC(=O)OC(C)C)/C(=C/C(=O)O)C1 (stereo partly drawn) [compound 1a]
peak concentration of the thiol active metabolite compared with clopidogrel ([1]; oral, dose level 10 mg/kg): significantly higher than that for clopidogrel | release of the active metabolite compared with clopidogrel ([1]; oral, dose level 10 mg/kg): faster and more efficient release of the active metabolite than clopidogrel

COC(=O)[C@H](c1ccccc1Cl)N1CCc2sccc2C1 [clopidogrel, Clopidogrel]
fraction hydrolysed by esterases into an inactive carboxylic acid [2]: 85% | fraction undergoing two-step oxidation via hepatic cytochrome P450 isoenzymes, mainly CYP2C19 [2]: 15% | inhibition at 10 mg/kg (platelet aggregation; Platelet, 10 mg/kg, ADP 10 μM, read-out: maximum inhibition of platelet aggregation): ~45% | time after administration to maximum inhibition of platelet aggregation (platelet aggregation; 10 mg/kg): about 120 minutes | onset of action [3]: 2 h
